Experimental data taken from patent US20070082339A1, “Methods and compositions for screening for HDAC inhibitory activity” (priority 2005, published 2007).

System: A549 cells
Experiment: Microarray analysis of gene expression after LAQ824 treatment
Format: cell-based, human
Conditions: A549, 500 nM vs DMSO
Description: The human lung carcinoma cell line A549 is obtained from the American Type Culture Collection (Rockville, Md.) and cultured in F-12K (ATCC, Manassas, Va.), 10% fetal bovine serum, and 1% penicillin/streptomycin (Life Technologies, Inc.). LAQ824 (Novartis) is added directly to the cell medium at a final concentration of 500 nM. Microarray analysis is performed essentially as described previously (Welsh, 2001). Total RNA is prepared from A549 cells treated with LAQ 824 or DMSO for 0.5, 2, 6, 12 and 24 h. Labelled cDNA is prepared and hybridized to Affymetrix U133 oligonucleotide GeneChip® (Affymetrix, Santa Clara, Calif.). The arrays were scanned on an Affymetrix GeneArray scanner and analyzed with GENECHIP Microarray Analysis Suite 5.0 software (MAS5) (Affymetrix). The data (raw data including image files and scanner files (Cel. Files) as well as the MAS5 normalized data are stored in the DEMON Database. The MAS5 normalized data are exported from the database and analyzed using GeneSpring software version 6.1. The genes are filtered for a minimal expression of 100 in at least one condition (the condition being defined as the average the value for the 3 samples corresponding to a given time point and a treatement) The gene expression changes (fold change) are calculated for each time point (t) as follow: (Gene expression level LAQ824 treated—(Average of the 3 replicates) Time (t))/(Gene expression level DMSO treated—(Average of the 3 replicates) Time (t)).
Any fold change <0 indicated a down regulation or reduction of the mRNA production, any fold change >0 indicated an up regulation or increase of mRNA production. Genes are filtered according to the fold change and the statistical significance of the changes (1-way-ANOVA test p<0.05)).

O=C(/C=C/c1ccc(CN(CCO)CCc2c[nH]c3ccccc23)cc1)NO [LAQ824, N-Hydroxy-3-[4-[[(2-hydroxyethyl)[2-(1H-indol-3-yl)-ethyl]-amino]methyl]phenyl]-2E-2-propenamide]
Fold change AMP-activated protein kinase family member 5 (ARK5) 204589_at (2 h): −1.1 fold | Fold change ANP32B acidic (leucine-rich) nuclear phosphoprotein 32 family, member B (SSP29) 201305_x_at (2 h): −1.3 fold | Fold change AVEN apoptosis, caspase activation inhibitor (Aven) 219366_at (2 h): −1.2 fold | Fold change B-cell CLL/lymphoma 3 (BCL3) 204908_s_at (2 h): −1.9 fold | Fold change BAI1-associated protein 2 (BAP2, IRSp53) 205293_x_at (2 h): 1.4 fold | Fold change BAI1-associated protein 3 (BAP3, KIAA0734) 204874_x_at (2 h): 1.0 fold | Fold change BAI1-associated protein 3 (BAP3, KIAA0734) 216356_x_at (2 h): 2.3 fold | Fold change BCL2-associated athanogene 2 (BAG-2) 209406_at (2 h): −1.4 fold | Fold change BCL2-interacting killer (apoptosis-inducing) (BP4, NBK, BIP1) 205780_at (2 h): 2.0 fold | Fold change BCL2-like 1 (BCL2L1) 206665_s_at (2 h): −1.2 fold | Fold change BH3 interacting domain death agonist (BID) 204493_at (2 h): 1.1 fold | Fold change Cyclin A2 (CCN1, CCNA) 203418_at (2 h): −1.3 fold | Fold change Cyclin-dependent kinase inhibitor 2D (p19, inhibits CDK4) (INK4D) 210240_s_at (2 h): 1.9 fold | Fold change DEC1-anti apoptosis (BHLHB2) 201169_s_at (2 h): −3.2 fold | Fold change Diphtheria toxin receptor (heparin-binding epidermal growth factor-like growth factor) (DTR) 203821_at (2 h): 9.8 fold | Fold change Early growth response 1 (TIS8, NGFI-A, KROX-24, ZIF-268) 201694_s_at (2 h): 1.4 fold | Fold change GMCL germ cell-less homolog (Drosophila) (GMCL) 218458_at (2 h): 1.7 fold | Fold change Katanin p80 (WD40-containing) subunit B 1 (KAT) 203163_at (2 h): 1.5 fold | Fold change NACHT, leucine rich repeat and PYD containing 1 (PP1044) 218380_at (2 h): 2.8 fold | Fold change Paternally expressed Gene 10 (PEG10) 212092_at (2 h): 1.1 fold | Fold change Paternally expressed Gene 10 (PEG10) 212094_at (2 h): 1.1 fold | Fold change Protein regulator of cytokinesis 1 (PRC1) 218009_s_at (2 h): −1.2 fold | Fold change SKAP55 protein 216899_s_at (2 h): 1.0 fold | Fold change Secreted frizzled-related protein 1 (FRP, SARP2) 202036_s_at (2 h): 1.1 fold | Fold change Secreted frizzled-related protein 1 (FRP, SARP2) 202037_s_at (2 h): 1.1 fold | Fold change Serine/threonine kinase 6 (AIK) 208079_s_at (2 h): 1.0 fold | Fold change Tribbles homolog 3a (TRIB3) 218145_at (2 h): −1.3 fold | Fold change Tumor necrosis factor receptor superfamily, member 6 (TNFRSF6) 215719_x_at (2 h): −1.3 fold | Fold change Tumor necrosis factor receptor superfamily, member 6 (TNFRSF6) 216252_x_at (2 h): −1.3 fold | Fold change Tumor protein p53 (Li-Fraumeni syndrome) 201746_at (2 h): 1.1 fold | Fold change Tumor protein p53 (Li-Fraumeni syndrome) 211300_s_at (2 h): 1.1 fold | Fold change member of the N-myc downregulated gene family (NDRG4) 209159_s_at (2 h): 1.2 fold | Fold change AMP-activated protein kinase family member 5 (ARK5) 204589_at (6 h): −4.3 fold | Fold change ANP32B acidic (leucine-rich) nuclear phosphoprotein 32 family, member B (SSP29) 201305_x_at (6 h): −1.6 fold | Fold change AVEN apoptosis, caspase activation inhibitor (Aven) 219366_at (6 h): −1.5 fold | Fold change B-cell CLL/lymphoma 3 (BCL3) 204908_s_at (6 h): −10.5 fold | Fold change BAI1-associated protein 2 (BAP2, IRSp53) 205293_x_at (6 h): 6.2 fold | Fold change BAI1-associated protein 3 (BAP3, KIAA0734) 204874_x_at (6 h): 5.1 fold | Fold change BAI1-associated protein 3 (BAP3, KIAA0734) 216356_x_at (6 h): 11.1 fold | Fold change BCL2-associated athanogene 2 (BAG-2) 209406_at (6 h): −2.4 fold | Fold change BCL2-interacting killer (apoptosis-inducing) (BP4, NBK, BIP1) 205780_at (6 h): 6.3 fold | Fold change BCL2-like 1 (BCL2L1) 206665_s_at (6 h): −4.2 fold | Fold change BH3 interacting domain death agonist (BID) 204493_at (6 h): −1.9 fold | Fold change Cyclin A2 (CCN1, CCNA) 203418_at (6 h): −2.3 fold | Fold change Cyclin-dependent kinase inhibitor 2D (p19, inhibits CDK4) (INK4D) 210240_s_at (6 h): 4.9 fold | Fold change DEC1-anti apoptosis (BHLHB2) 201169_s_at (6 h): −4.5 fold | Fold change Diphtheria toxin receptor (heparin-binding epidermal growth factor-like growth factor) (DTR) 203821_at (6 h): 8.5 fold | Fold change Early growth response 1 (TIS8, NGFI-A, KROX-24, ZIF-268) 201694_s_at (6 h): 3.6 fold | Fold change GMCL germ cell-less homolog (Drosophila) (GMCL) 218458_at (6 h): 4.1 fold | Fold change Katanin p80 (WD40-containing) subunit B 1 (KAT) 203163_at (6 h): 2.9 fold | Fold change NACHT, leucine rich repeat and PYD containing 1 (PP1044) 218380_at (6 h): 7.6 fold | Fold change Paternally expressed Gene 10 (PEG10) 212092_at (6 h): 2.0 fold | Fold change Paternally expressed Gene 10 (PEG10) 212094_at (6 h): 1.9 fold | Fold change Protein regulator of cytokinesis 1 (PRC1) 218009_s_at (6 h): −1.9 fold | Fold change SKAP55 protein 216899_s_at (6 h): 1.6 fold | Fold change Secreted frizzled-related protein 1 (FRP, SARP2) 202036_s_at (6 h): 1.6 fold | Fold change Secreted frizzled-related protein 1 (FRP, SARP2) 202037_s_at (6 h): 1.8 fold | Fold change Serine/threonine kinase 6 (AIK) 208079_s_at (6 h): −2.0 fold | Fold change Tribbles homolog 3a (TRIB3) 218145_at (6 h): −4.6 fold | Fold change Tumor necrosis factor receptor superfamily, member 6 (TNFRSF6) 215719_x_at (6 h): −3.2 fold | Fold change Tumor necrosis factor receptor superfamily, member 6 (TNFRSF6) 216252_x_at (6 h): −2.9 fold | Fold change Tumor protein p53 (Li-Fraumeni syndrome) 201746_at (6 h): −1.9 fold | Fold change Tumor protein p53 (Li-Fraumeni syndrome) 211300_s_at (6 h): −1.6 fold | Fold change member of the N-myc downregulated gene family (NDRG4) 209159_s_at (6 h): 2.8 fold
